# Measurements from ChEMBL document CHEMBL1149486, “Carbonic anhydrase inhibitors: Hypoxia-activatable sulfonamides incorporating disulfide bonds that target the tumor-associated isoform IX” (J Med Chem, 2006).
# Target: Carbonic anhydrase 9 (Homo sapiens, UniProt Q16790)
row,Ki,Compound
1,71 nM,NS(=O)(=O)c1ccc(CCNC(=O)CCSSCCC(=O)NCCc2ccc(S(N)(=O)=O)cc2)cc1
2,3.6 nM,NS(=O)(=O)c1nnc(NC(=O)CCS)s1
3,9.3 nM,Cn1nc(S(N)(=O)=O)s/c1=N/C(=O)CCSSCCC(=O)/N=c1/sc(S(N)(=O)=O)nn1C
